Results taken from ChEMBL document CHEMBL4715855, “N-phenyl ureidobenzenesulfonates, a novel class of promising human dihydroorotate dehydrogenase inhibitors” (Bioorg Med Chem, 2020).

Tests used:
Type in all cases: functional, cell-based
[1] = system: NCI-H23; test: Antiproliferative activity against human NCI-H23 cells assessed as cell growth inhibition measured after 48 hrs by sulforhodamine B assay; conditions: NCI-H23, 48 h
[2] = system: MDA-MB-231; test: Antiproliferative activity against human MDA-MB-231/ATCC cells assessed as cell growth inhibition measured after 48 hrs by sulforhodamine B assay; conditions: MDA-MB-231, 48 h
[3] = system: 786-0; test: Antiproliferative activity against human 786-0 cells assessed as cell growth inhibition measured after 48 hrs by sulforhodamine B assay; conditions: 786-0, 48 h
[4] = system: NCI-H322M; test: Antiproliferative activity against human NCI-H322M cells assessed as cell growth inhibition measured after 48 hrs by sulforhodamine B assay
[5] = system: SK-MEL-5; test: Antiproliferative activity against human SK-MEL-5 cells assessed as cell growth inhibition measured after 48 hrs by sulforhodamine B assay; conditions: SK-MEL-5, 48 h
[6] = system: K562; test: Antiproliferative activity against human K562 cells assessed as cell growth inhibition incubated for 48 hrs by sulforhodamine B assay; conditions: K562, 48 h
[7] = system: SNB-19; test: Antiproliferative activity against human SNB-19 cells assessed as cell growth inhibition measured after 48 hrs by sulforhodamine B assay; conditions: SNB-19, 48 h
[8] = system: A549; test: Antiproliferative activity against human A549/ATCC cells assessed as cell growth inhibition measured after 48 hrs by sulforhodamine B assay; conditions: A549, 48 h
[9] = system: M21; test: Antiproliferative activity against human M21 cells assessed as cell growth inhibition measured after 48 hrs in presence of uridine by SRB assay; conditions: M21, 48 h
[10] = system: UO-31; test: Antiproliferative activity against human UO-31 cells assessed as cell growth inhibition measured after 48 hrs by sulforhodamine B assay; conditions: UO-31, 48 h
[11] = system: HT-1080; test: Antiproliferative activity against human HT-1080 cells assessed as cell growth inhibition measured after 48 hrs in presence of uridine by SRB assay; conditions: HT-1080, 48 h
[12] = system: CAKI-1; test: Antiproliferative activity against human CAKI-1 cells assessed as cell growth inhibition measured after 48 hrs by sulforhodamine B assay; conditions: CAKI-1, 48 h
[13] = system: KM12; test: Antiproliferative activity against human KM12 cells assessed as cell growth inhibition measured after 48 hrs by sulforhodamine B assay; conditions: KM12, 48 h
[14] = system: SK-MEL-28; test: Antiproliferative activity against human SK-MEL-28 cells assessed as cell growth inhibition measured after 48 hrs by sulforhodamine B assay; conditions: SK-MEL-28, 48 h
[15] = system: HOP-92; test: Antiproliferative activity against human HOP-92 cells assessed as cell growth inhibition measured after 48 hrs by sulforhodamine B assay; conditions: HOP-92, 48 h
[16] = system: BT-549; test: Antiproliferative activity against human BT-549 cells assessed as cell growth inhibition measured after 48 hrs by sulforhodamine B assay; conditions: BT-549, 48 h
[17] = system: M21; test: Antiproliferative activity against human M21 cells assessed as cell growth inhibition measured after 48 hrs by SRB assay; conditions: M21, 48 h
[18] = system: OVCAR-8; test: Antiproliferative activity against human OVCAR-8 cells assessed as cell growth inhibition measured after 48 hrs by sulforhodamine B assay; conditions: OVCAR-8, 48 h
[19] = system: NCI-H460; test: Antiproliferative activity against human NCI-H460 cells assessed as cell growth inhibition measured after 48 hrs by sulforhodamine B assay; conditions: NCI-H460, 48 h
[20] = system: HCT-116; test: Antiproliferative activity against human HCT-116 cells assessed as cell growth inhibition measured after 48 hrs by sulforhodamine B assay; conditions: HCT-116, 48 h
[21] = system: SNB-75; test: Antiproliferative activity against human SNB-75 cells assessed as cell growth inhibition measured after 48 hrs by sulforhodamine B assay; conditions: SNB-75, 48 h
[22] = system: MCF7; test: Antiproliferative activity against human MCF7 cells assessed as cell growth inhibition measured after 48 hrs by SRB assay; conditions: MCF7, 48 h
[23] = system: UACC-62; test: Antiproliferative activity against human UACC-62 cells assessed as cell growth inhibition measured after 48 hrs by sulforhodamine B assay; conditions: UACC-62, 48 h
[24] = system: PC-3; test: Antiproliferative activity against human PC-3 cells assessed as cell growth inhibition measured after 48 hrs by sulforhodamine B assay; conditions: PC-3, 48 h
[25] = system: SW-620; test: Antiproliferative activity against human SW-620 cells assessed as cell growth inhibition measured after 48 hrs by sulforhodamine B assay; conditions: SW-620, 48 h
[26] = system: SK-MEL-2; test: Antiproliferative activity against human SK-MEL-2 cells assessed as cell growth inhibition measured after 48 hrs by sulforhodamine B assay; conditions: SK-MEL-2, 48 h
[27] = system: U-251; test: Antiproliferative activity against human U-251 cells assessed as cell growth inhibition measured after 48 hrs by sulforhodamine B assay; conditions: U-251, 48 h
[28] = system: ACHN; test: Antiproliferative activity against human ACHN cells assessed as cell growth inhibition measured after 48 hrs by sulforhodamine B assay
[29] = system: OVCAR-3; test: Antiproliferative activity against human OVCAR-3 cells assessed as cell growth inhibition measured after 48 hrs by sulforhodamine B assay; conditions: OVCAR-3, 48 h
[30] = system: MOLT-4; test: Antiproliferative activity against human MOLT-4 cells assessed as cell growth inhibition measured after 48 hrs by sulforhodamine B assay; conditions: MOLT-4, 48 h
[31] = system: NCI/ADR-RES; test: Antiproliferative activity against human NCI/ADR-RES cells assessed as cell growth inhibition measured after 48 hrs by sulforhodamine B assay
[32] = system: SF-295; test: Antiproliferative activity against human SF-295 cells assessed as cell growth inhibition measured after 48 hrs by sulforhodamine B assay; conditions: SF-295, 48 h
[33] = system: MDA-MB-435; test: Antiproliferative activity against human MDA-MB-435 cells assessed as cell growth inhibition measured after 48 hrs by sulforhodamine B assay; conditions: MDA-MB-435, 48 h
[34] = system: HT-1080; test: Antiproliferative activity against human HT-1080 cells assessed as cell growth inhibition measured after 48 hrs by SRB assay; conditions: HT-1080, 48 h
[35] = system: OVCAR-5; test: Antiproliferative activity against human OVCAR-5 cells assessed as cell growth inhibition measured after 48 hrs by sulforhodamine B assay; conditions: OVCAR-5, 48 h
[36] = system: T47D; test: Antiproliferative activity against human T47D cells assessed as cell growth inhibition measured after 48 hrs by sulforhodamine B assay
[37] = system: TK-10; test: Antiproliferative activity against human TK-10 cells assessed as cell growth inhibition measured after 48 hrs by sulforhodamine B assay; conditions: TK-10, 48 h
[38] = system: COLO 205; test: Antiproliferative activity against human COLO 205 cells assessed as cell growth inhibition measured after 48 hrs by sulforhodamine B assay; conditions: COLO 205, 48 h
[39] = system: UACC-257; test: Antiproliferative activity against human UACC-257 cells assessed as cell growth inhibition measured after 48 hrs by sulforhodamine B assay; conditions: UACC-257, 48 h
[40] = system: RPMI-8226; test: Antiproliferative activity against human RPMI-8226 cells assessed as cell growth inhibition measured after 48 hrs by sulforhodamine B assay; conditions: RPMI-8226, 48 h

Q: How did the IC50 [1] turn out when `CCNC(=O)Nc1ccc(S(=O)(=O)Oc2ccccc2CC)cc1` was run?
A: The IC50 was 12900 nM.

Q: And the IC50 [2]?
A: Its IC50 is 11700 nM.

Q: What about the IC50 [3] of the same compound?
A: Its IC50 is 9120 nM.

Q: And the IC50 [4]?
A: The IC50 was 12900 nM.

Q: And the IC50 [5]?
A: The IC50 was 2450 nM.

Q: What about the IC50 [6] of the same compound?
A: The IC50 was 282 nM.

Q: And the IC50 [7]?
A: The IC50 was 3630 nM.

Q: What about the IC50 [8] of the same compound?
A: Its IC50 is 955 nM.

Q: And the IC50 [9]?
A: Its IC50 is 30000 nM.

Q: And the IC50 [10]?
A: The IC50 was 6030 nM.

Q: What about the IC50 [11] of the same compound?
A: The IC50 was 7400 nM.

Q: And the IC50 [12]?
A: Its IC50 is 759 nM.

Q: And the IC50 [13]?
A: Its IC50 is 1150 nM.

Q: What about the IC50 [14] of the same compound?
A: The IC50 was 11700 nM.

Q: What about the IC50 [15] of the same compound?
A: The IC50 was 6610 nM.

Q: And the IC50 [16]?
A: The IC50 was 11700 nM.

Q: And the IC50 [17]?
A: The IC50 was 3000 nM.

Q: What about the IC50 [18] of the same compound?
A: The IC50 was 851 nM.

Q: And the IC50 [19]?
A: The IC50 was 427 nM.

Q: And the IC50 [20]?
A: Its IC50 is 575 nM.

Q: And the IC50 [21]?
A: Its IC50 is 9120 nM.

Q: What about the IC50 ([22]; read-out: IC50) of the same compound?
A: Its IC50 is 5900 nM.

Q: And the IC50 ([22]; read-out: pIC50 (converted))?
A: The IC50 was 3240 nM.

Q: What about the IC50 [23] of the same compound?
A: The IC50 was 2510 nM.

Q: And the IC50 [24]?
A: The IC50 was 832 nM.

Q: What about the IC50 [25] of the same compound?
A: The IC50 was 2750 nM.

Q: What about the IC50 [26] of the same compound?
A: Its IC50 is 16200 nM.

Q: And the IC50 [27]?
A: Its IC50 is 617 nM.

Q: What about the IC50 [28] of the same compound?
A: The IC50 was 1580 nM.

Q: And the IC50 [29]?
A: The IC50 was 6610 nM.

Q: And the IC50 [30]?
A: Its IC50 is 282 nM.

Q: And the IC50 [31]?
A: Its IC50 is 3550 nM.

Q: What about the IC50 [32] of the same compound?
A: Its IC50 is 759 nM.

Q: What about the IC50 [33] of the same compound?
A: Its IC50 is 4470 nM.

Q: And the IC50 [34]?
A: Its IC50 is 450 nM.

Q: What about the IC50 [35] of the same compound?
A: Its IC50 is 22900 nM.

Q: And the IC50 [36]?
A: The IC50 was 16200 nM.

Q: And the IC50 [37]?
A: Its IC50 is 13200 nM.

Q: And the IC50 [38]?
A: The IC50 was 2510 nM.

Q: And the IC50 [39]?
A: The IC50 was 13200 nM.

Q: What about the IC50 [40] of the same compound?
A: The IC50 was 1380 nM.

Q: What does the source list for `Cc1c(-c2ccc(-c3ccccc3F)cc2)nc2ccc(F)cc2c1C(=O)O` [BREQUINAR]?
A: IC50 [1]: 21400 nM; IC50 [2]: 3630 nM; IC50 [3]: 195 nM; IC50 [4]: 15100 nM; IC50 [5]: 1380 nM; IC50 [6]: 145 nM; IC50 [7]: 1260 nM; IC50 [8]: 234 nM; IC50 [9]: 25000 nM; IC50 [10]: 1150 nM; IC50 [11]: 17000 nM; IC50 [12]: 912 nM; IC50 [13]: 209 nM; IC50 [14]: 10000 nM; IC50 [15]: 35500 nM; IC50 [16]: 57500 nM; IC50 [17]: 570 nM; IC50 [18]: 324 nM; IC50 [19]: 129 nM; IC50 [20]: 87.1 nM; IC50 [21]: 81300 nM; IC50 ([22]; read-out: IC50): 5100 nM; IC50 ([22]; read-out: pIC50 (converted)): 269 nM; IC50 [23]: 263 nM; IC50 [24]: 759 nM; IC50 [25]: 380 nM; IC50 [26]: 61700 nM; IC50 [27]: 195 nM; IC50 [28]: 151 nM; IC50 [29]: 3720 nM; IC50 [30]: 89.1 nM; IC50 [31]: 2190 nM; IC50 [32]: 240 nM; IC50 [33]: 372 nM; IC50 [34]: 210 nM; IC50 [35]: 38900 nM; IC50 [36]: 17000 nM; IC50 [37]: 16200 nM; IC50 [38]: 513 nM; IC50 [39]: 12600 nM; IC50 [40]: 372 nM
